Results from PubChem BioAssay (NCI).
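In this assay, cells in 96-well plates receive the compound at five concentrations for 48 hours. Endpoints are linearly interpolated between the surrounding concentrations. GI50 is the concentration that inhibits growth by half. TGI: total growth inhibition.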

How the values were obtained:
Assay in all cases: DTP human tumour cell line panel, 48 h
A549 NSCLC = system: A549 NSCLC
A498 renal = system: A498 renal
RXF 393 renal = system: RXF 393 renal
UACC-62 melanoma = system: UACC-62 melanoma
NCI/ADR-RES ovarian = system: NCI/ADR-RES ovarian
HT29 colon = system: HT29 colon
MOLT-4 leukemia = system: MOLT-4 leukemia
ACHN renal = system: ACHN renal
MALME-3M melanoma = system: MALME-3M melanoma
SK-MEL-28 melanoma = system: SK-MEL-28 melanoma

SMILES | GI50 (A549 NSCLC) [µM] | TGI (A549 NSCLC) [µM] | GI50 (A498 renal) [µM] | TGI (A498 renal) [µM] | GI50 (RXF 393 renal) [µM] | TGI (RXF 393 renal) [µM] | GI50 (UACC-62 melanoma) [µM] | TGI (UACC-62 melanoma) [µM] | GI50 (NCI/ADR-RES ovarian) [µM] | TGI (NCI/ADR-RES ovarian) [µM] | GI50 (HT29 colon) [µM] | TGI (HT29 colon) [µM] | GI50 (MOLT-4 leukemia) [µM] | TGI (MOLT-4 leukemia) [µM] | GI50 (ACHN renal) [µM] | TGI (ACHN renal) [µM] | GI50 (MALME-3M melanoma) [µM] | TGI (MALME-3M melanoma) [µM] | GI50 (SK-MEL-28 melanoma) [µM] | TGI (SK-MEL-28 melanoma) [µM]
c1ccc2c(N=NSc3ncnc4nc[nH]c34)c3ccccc3nc2c1 | 0.648 | 3.89 | 1.13 | 2.6 | 0.967 | 2.87 | 1.1 | 2.63 | 1.19 | 8.39 | 0.398 | 2.16 | 0.454 | 4.83 | 0.609 | 7.03 | 2.01 | 4.11 | 1.78 | 3.71
CC(NNC(=S)N1CCN(c2ccccn2)CC1)c1nccc2ccccc12 (stereo not given) |  | 13.2 |  | 17.3 |  | 8.53 |  | 2.35 |  | 12 |  | 19.1 |  | 10.3 |  | 10.9 |  | 15.5 |  | 18.5
Cn1nc(C(F)(F)F)cc1-c1cc(Cl)c(OCc2ccc(Cl)cc2)c(-c2ccc(Cl)c(C(F)(F)F)c2)c1O | 1.41 | 5.6 | 0.251 | 1.09 | 1.01 | 3.11 | 0.91 | 2.51 | 1.35 | 5.33 | 1.4 | 5.92 | 1.01 | 2.39 | 1.39 | 4.6 | 1.06 | 2.57 | 1.14 | 3.53
COc1nn(C)cc1Nc1nccc(-c2c[nH]c3c(NC(=O)[C@@H](C)N4CCN(C)CC4)cccc23)n1 | 44.3 | > 100 | 15.9 | 45.2 | 16.6 | 42.2 | 40.6 | > 100 | 61.9 | > 100 | 29.4 | > 100 | 37.8 | > 100 | 37.6 | > 100 | 20.1 | 73.1 | 53.9 | > 100
CCC[CH2][Sn]1([CH2]CCC)[O]C(=O)c2cccc([N+](=O)[O-])c2C(=O)[O]1 | 1.77 | 3.59 | 0.191 | 0.547 | 0.27 | 0.783 | 0.381 | 1.5 | 1.53 | 3.21 | 1.31 | 2.87 | 0.409 | 2.98 | 0.348 | 1.27 | 0.189 | 0.623 | 0.465 | 1.43
Clc1ccc2c(NC3CCC(N4CCCCC4)CC3)ccnc2c1 (stereo not given) |  | > 100 |  | 38.6 |  | 43.7 |  | 32.2 |  | > 100 |  | 40.7 |  | > 100 |  | > 100 |  | 36.1 |  | 36.8
